According to publication PMC10779433, “Bidirectional Allosteric Coupling between PIP2 Binding and the Pore of the Oncochannel TRPV6” (International Journal of Molecular Sciences, 2024):

Experiments:
TRPV6 I575A = test: NFAT screen, TRPV6 I575A; assay type: cell-based, human; settings: HEK293 cells; 5 μM cis-22a, 2 h, vs DMSO
Protocol: (§1) N-terminally TagRFP-labeled human TRPV6 (725 aa) was kindly provided by R. Bhardwaj and M. Hediger (University of Bern, Bern, Switzerland). This variant is translated from the first ATG codon and thus deviates from the non-ATG-initiated protein which is expressed in vivo (accession number NM_018646.6) by lacking 40 amino acids of the very N-terminus. For N-terminal labeling with EYFP, TRPV6 was cloned into pEYFP-C1 (Clontech) via EcoRI and SacII restriction sites. […]
(§2) After incubation, cover slips were carefully rinsed with phenol red-free DMEM supplemented with the compound and dosage corresponding to the previous incubation, which was then also present during imaging. […] Subcellular NFAT localization of TRPV6 expressing cells was again monitored on an Axiovert 135 inverted microscope (Zeiss, Oberkochen, Germany), as described in more detail before. […] Images were analyzed using Matlab2018a, differentiating between three cell populations based on the ratio of CFP emission intensity originating from the nucleus and the cytosol, similar to Schober et al. (2019).

TRPV6 R470A W583F = test: NFAT screen, TRPV6 R470A W583F; assay type: cell-based, human; settings: HEK293 cells; 5 μM cis-22a, 2 h
Protocol: as §1, §2

With `Cc1cccc(C2CCC(N3CCN(c4cccnc4)CC3)CC2)c1.O=C(O)C(F)(F)F` (stereo not drawn) [cis-22a] the “change of nuclear NFAT localization” value (TRPV6 I575A) was “not significantly changed” and the NFAT localization patterns (TRPV6 R470A W583F) was “unable to change localization patterns”.
